These results are taken from paper PMC9628899 (Antiviral Research, 2003).

One test deals with vaccinia virus. The class given is in vivo, mice. The note with it: given orally; Kern, unpublished results.
The subject of test [1] is cowpox virus. Also noted: species or system mice. The note with it: mouse, in vivo, po.
Test [2] relates to vaccinia, cowpox, monkeypox, and variola viruses. The class given is cell-based.
For another test, the system named is vaccinia virus (VV). The note with it: read-out: EC50 Vaccinia; Table 4; ref Kern et al. (2002); cited from earlier work.
In the next test the test system is cowpox virus (CV). The note with it: read-out: EC50 Cowpox; cited from earlier work.
Another test deals with Monkeypox. The note with it: read-out: EC50 Monkeypox; cited from earlier work.
For another test, the system named is Variola. The note with it: read-out: EC50 Variola; cited from earlier work.
The subject of test [3] is cowpox virus. The note with it: mouse, in vivo, po; cited from earlier work.

As to `CCCCCCCCCCCCCCCCOCCCOP(=O)(O)CO[C@H](CO)Cn1ccc(N)nc1=O` [HDP-CDV, 3-hexadecyloxy-l-propanol CDV], the “activity in vaccinia virus infection of mice” value in the test on vaccinia virus is “active orally”. In the test on cowpox virus [1], the “activity in cowpox virus infection of mice” value is “active orally”. For the same compound, in test [2], the “active at levels -fold less than the parent molecules” value is recorded as 50- to 200 fold. Besides, the EC50 (usually the concentration needed to bring the measured effect to its halfway point) is 800 ± 400 nM with vaccinia virus (VV), 600 ± 300 nM in the test with cowpox virus (CV), 70 nM with Monkeypox and 100 nM in the test on Variola. Besides, the “activity in cowpox virus-infected mice” value in the test with cowpox virus [3] is “active”.
